Reference: ChEMBL document CHEMBL4414576, “Recent advancements in mechanistic studies and structure activity relationship of FoF1 ATP synthase inhibitor as antimicrobial agent” (Eur J Med Chem, 2019)
≈ marks a conversion by molar mass, not a printed value. Starred links: 1 amine or outer side, 2 acyl side, 3 side chain; linkers in the order of their positions; H or OH if unused. Non-standard residues stand in square brackets, D forms with d. Residues, ends and D or L forms follow the SMILES beside them. *: point of attachment. X2 = CCC(=O)C[C@@H](O)CC(C)C[C@H](N[*:1])C(=O)[*:2]; Leu(3R-OH) = CC(C)[C@@H](O)[C@H](N)C(=O)O; NH((S)CH(Me)CH2NMe2) = C[C@@H](CN(C)C)N*; Pro(4S-Me) = C[C@@H]1CN[C@H](C(=O)O)C1; X1 = CC[C@@H](C)/C=C/C(=O)*; Aib = CC(C)(N)C(=O)O; βAla = NCCC(=O)O

Assays:
Escherichia coli [1] = test: Antimicrobial activity against Escherichia coli after 1 to 5 days by two-fold dilution; format: functional, organism-based
Pseudomonas aeruginosa = test: Antimicrobial activity against Pseudomonas aeruginosa after 1 to 5 days by two-fold dilution; format: functional, organism-based
Staphylococcus aureus [2] = test: Antimicrobial activity against Staphylococcus aureus after 1 to 5 days by two-fold dilution; format: functional, organism-based
Bacillus subtilis [3] = test: Antimicrobial activity against Bacillus subtilis after 1 to 5 days by two-fold dilution; format: functional, organism-based
[4] = tested on: Mycolicibacterium smegmatis; test: Antimicrobial activity against Mycobacterium smegmatis after 1 to 5 days by two-fold dilution; format: functional, organism-based
[5] = Inhibition of ATP synthase in Escherichia coli
Escherichia coli [6] = test: Inhibition of ATP synthase in Escherichia coli relative to control; details: concentration not given here
[7] = tested on: Mycobacterium tuberculosis; test: Antimicrobial activity against Mycobacterium tuberculosis H37Rv; format: functional, organism-based
[8] = Selectivity index, ratio of CC50 for African green monkey Vero cells to IC50 of Mycobacterium tuberculosis H37Rv; format: toxicity; details: read-out: Ratio IC50
[9] = Inhibition of ATP synthase isolates from rat brain cells using succinate as substrate preincubated for 5 mins followed by substrate addition
[10] = Selectivity index, ratio of CC50 for human HepG2 cells to MIC of Mycobacterium tuberculosis H37Rv; format: toxicity
[11] = Inhibition of ATP synthase in Mycobacterium smegmatis; parameters: species or system Mycolicibacterium smegmatis
Staphylococcus aureus [12] = test: Antimicrobial activity against Staphylococcus aureus ATCC 29213; format: functional
[13] = tested on: Mycobacterium tuberculosis; test: Antimicrobial activity against Mycobacterium tuberculosis H37Rv after 5 days; format: functional
ATP synthase = test: Inhibition of ATP synthase in Mycobacterium tuberculosis H37Rv; format: protein-complex assay
Streptococcus pneumoniae [14] = test: Antimicrobial activity against Streptococcus pneumoniae ATCC 49619; format: functional
Streptococcus pneumoniae [15] = test: Antimicrobial activity against Streptococcus pneumoniae; format: functional
Saccharomyces cerevisiae = test: Inhibition of F1F0-ATP synthase in yeast relative to control; details: concentration not given here
[16] = tested on: Mycobacterium tuberculosis H37Rv; test: Inhibition of F0F1-ATP synthase in Mycobacterium tuberculosis H37Rv at […] using succinate as substrate preincubated for 10 mins followed by substrate addition by luciferase reporter gene assay relative to control
Staphylococcus aureus [17] = test: Antimicrobial activity against Staphylococcus aureus; format: functional
Bacillus subtilis [18] = test: Antimicrobial activity against Bacillus subtilis; format: functional
Streptococcus pyogenes = test: Antimicrobial activity against Streptococcus pyogenes; format: functional
Enterococcus faecalis = test: Antimicrobial activity against Streptococcus faecalis; format: functional
Micrococcus luteus = test: Antimicrobial activity against Sarcina lutea; format: functional
Microbacterium = test: Antimicrobial activity against Microbacterium species; format: functional
Candida = test: Antifungal activity against Candida; format: functional
[19] = Antifungal activity against Cryptococcus; format: functional
Sporotrichum = test: Antifungal activity against Sporotrichum; format: functional
Trichophyton = test: Antifungal activity against Trichophyton; format: functional
Microsporum = test: Antifungal activity against Microsporum; format: functional
Mus musculus = species on record: Mus musculus; test: Inhibition of mitochondrial ATP synthase isolated from Swiss albino mouse liver at 100 uM using succinate as substrate after 1 hr relative to control
[20] = molecular target: T1, ATP synthase (Mycobacterium tuberculosis) (UniProt P9WPU9+P9WPU5+P9WPU7+P9WPV5+P9WPS1+P9WPV1+P9WPV7+P9WPV3); test: Inhibition of ATP synthase in Mycobacterium tuberculosis H37Rv whole cell lysate after 18 hrs at 10X of MIC relative to control; format: subcellular
[21] = Selectivity index, ratio of IC50 for ATP synthase in Mycobacterium tuberculosis H37Rv to IC50 for mitochondrial ATP synthase isolated from swiss albino mouse liver
[22] = molecular target: T1, ATP synthase (Mycobacterium tuberculosis); test: Inhibition of ATP synthase in Mycobacterium tuberculosis H37Rv whole cell lysate after 18 hrs at 5X of MIC relative to control; format: subcellular

## FC(F)(F)Oc1cccc(CNCCNC2C3CC4CC(C3)C2C4)c1 (stereo not given)
Escherichia coli [1]
  MIC: 6.25 µg/mL (≈ 17.6 µM)
Pseudomonas aeruginosa
  MIC: 12.5 µg/mL (≈ 35.3 µM)
Staphylococcus aureus [2]
  MIC: 6.25 µg/mL (≈ 17.6 µM)
Bacillus subtilis [3]
  MIC: 6.25 µg/mL (≈ 17.6 µM)
[4]
  IC50: 20 µM

## O=c1c(O)c(-c2ccc(O)c(O)c2)oc2cc(O)cc(O)c12 [QUERCETIN]
[5]
  IC50: 33 µM
Escherichia coli [6]
  inhibition: 80%

## O=C(CNC1CCCCC1)N(c1ccccc1)c1ccccc1
[7]
  IC50: 14 µM
[8]
  selectivity ratio: 21.1

## COc1cc(/C=C/C(=O)CC(=O)/C=C/c2ccc(O)c(OC)c2)ccc1O [CURCUMIN]
[9]
  IC50: 45 µM

## O=C(O[C@@H]1Cc2c(O)cc(O)cc2O[C@@H]1c1cc(O)c(O)c(O)c1)c1cc(O)c(O)c(O)c1 [EPIGALOCATECHIN GALLATE]
[9]
  IC50: 17 µM

## COc1nc2ccc(Br)cc2cc1[C@@H](c1ccccc1)[C@@](O)(CCN(C)C)c1cccc2ccccc12 [BEDAQUILINE]
[10]
  selectivity ratio: > 20000
[11]
  IC50: 6.47 µM
[7]
  MIC: 3.6 µg/mL (≈ 6.48 µM)

## Oc1cc(O)cc(/C=C/c2ccc(O)c(O)c2)c1 [PICEATANNOL]
[9]
  IC50: 8 µM
[5]
  IC50: 14 µM
Escherichia coli [6]
  inhibition: 100%

## C[C@H]1COc2c(N3CCN(C)CC3)c(F)cc3c(=O)c(C(=O)O)cn1c23.C[C@H]1COc2c(N3CCN(C)CC3)c(F)cc3c(=O)c(C(=O)O)cn1c23.O [LEVOFLOXACIN]
Staphylococcus aureus [12]
  MIC: 0.25 µg/mL

## CCN(CC)Cc1cc(N(c2cc(C)nc3cc(Cl)ccc23)S(=O)(=O)c2ccc(Cl)cc2)ccc1O
[13]
  MIC: 6.25 µg/mL (≈ 11.5 µM)
ATP synthase
  IC50: 0.36 to 1.83 µM

## COc1nc2ccc(Br)cc2cc1[C@H](c1ccccc1)[C@](O)(CCCCN(C)C)CCc1ccccc1
Staphylococcus aureus [12]
  MIC: 2 µg/mL (≈ 3.56 µM)
Streptococcus pneumoniae [14]
  MIC: 0.25 µg/mL (≈ 0.445 µM)

## COc1nc2ccc(Br)cc2cc1[C@H](c1ccccc1)[C@](O)(CCN(C)C)c1ccc(Cl)cc1
Streptococcus pneumoniae [15]
  MIC: 1 µg/mL (≈ 1.85 µM)

## CCN(CC)Cc1cc(N(c2cc(C)nc3cc(Cl)ccc23)S(=O)(=O)c2cc(C)cc(C)c2)ccc1O
[13]
  MIC: 6.25 µg/mL (≈ 11.6 µM)
ATP synthase
  IC50: 0.36 to 1.83 µM

## COc1cc(=O)oc(/C=C/C=C/C=C/C(C)=C/[C@]2(C)O[C@H](C)[C@](C)(O)[C@H]2O)c1C
Saccharomyces cerevisiae
  inhibition: 85%

## COc1nc2ccc(Br)cc2cc1[C@H](c1cc(F)ccc1F)[C@](O)(CCCCN(C)C)c1ccccc1
Staphylococcus aureus [12]
  MIC: 1 µg/mL (≈ 1.76 µM)
Streptococcus pneumoniae [14]
  MIC: 0.25 µg/mL (≈ 0.439 µM)

## CCN(CC)Cc1cc(N(c2cc(C)nc3cc(Cl)ccc23)S(=O)(=O)c2cccc(Cl)c2Cl)ccc1O
[13]
  MIC: 3.12 µg/mL (≈ 5.39 µM)
ATP synthase
  IC50: 0.36 to 1.83 µM

## COc1cccc(N2CCN(CC(O)COC(c3ccccc3)c3cccc4ccccc34)CC2)c1 (stereo not given)
[16]
  inhibition: 99%

## COc1ccc(CC[C@@](O)(CCN(C)C)[C@@H](c2ccccc2)c2cc3cc(Br)ccc3nc2OC)cc1
Streptococcus pneumoniae [14]
  MIC: 0.25 µg/mL (≈ 0.444 µM)

## Oc1ccc(/C=C/c2cc(O)cc(O)c2)cc1 [RESVERATROL]
[9]
  IC50: 19 µM
[5]
  IC50: 94 µM
Escherichia coli [6]
  inhibition: 40%

## CCC(=O)C[C@@H](O)CC(C)C[C@H](NC(=O)[C@@H]1C[C@H](C)CN1C(=O)/C=C/[C@H](C)CC)C(=O)N[C@H](C(=O)NC(C)(C)C(=O)N[C@@H](CC(C)C)C(=O)N[C@@H](CC(C)C)C(=O)NC(C)(C)C(=O)NC(C)(C)C(=O)NCCC(=O)N[C@@H](C)CN(C)C)[C@H](O)C(C)C (stereo partly drawn) (X1-[Pro(4S-Me)][X2][Leu(3R-OH)][Aib]LL[Aib][Aib][βAla]-{NH((S)CH(Me)CH2NMe2)})
Staphylococcus aureus [17]
  MIC: 2.52 to 50 µg/mL (≈ 2.07 to 41 µM)
Bacillus subtilis [18]
  MIC: 2.52 to 50 µg/mL (≈ 2.07 to 41 µM)
Streptococcus pyogenes
  MIC: 2.52 to 50 µg/mL (≈ 2.07 to 41 µM)
Enterococcus faecalis
  MIC: 2.52 to 50 µg/mL (≈ 2.07 to 41 µM)
Micrococcus luteus
  MIC: 2.52 to 50 µg/mL (≈ 2.07 to 41 µM)
Microbacterium
  MIC: 2.52 to 50 µg/mL (≈ 2.07 to 41 µM)
Candida
  MIC: 1 to 10 µg/mL (≈ 0.821 to 8.21 µM)
[19]
  MIC: 1 to 10 µg/mL (≈ 0.821 to 8.21 µM)
Sporotrichum
  MIC: 1 to 10 µg/mL (≈ 0.821 to 8.21 µM)
Trichophyton
  MIC: 1 to 10 µg/mL (≈ 0.821 to 8.21 µM)
Microsporum
  MIC: 1 to 10 µg/mL (≈ 0.821 to 8.21 µM)

## COc1ccc(/C=C2/S/C(=N/N=C/c3ccccc3O)NC2=O)cc1
Mus musculus
  inhibition: 32%
[10]
  selectivity ratio: 80
[11]
  IC50: 0.312 µM
[20]
  inhibition: 15 to 30%
[7]
  MIC: 0.5 µg/mL (≈ 1.41 µM)
[21]
  Ratio IC50: 51

## OC(COC(c1ccccc1)c1cccc2ccccc12)CN1CCN(c2ccccc2)CC1 (stereo not given)
[16]
  inhibition: 91%

## NNC(=O)c1ccncc1
[16]
  inhibition: 99%

## CCN(CC)Cc1cc(N(c2cc(C)nc3cc(Cl)ccc23)S(=O)(=O)c2ccc(Cl)cc2Cl)ccc1O
[13]
  MIC: 3.12 µg/mL (≈ 5.39 µM)
ATP synthase
  IC50: 0.36 to 1.83 µM

## COc1ccccc1N1CCN(CC(O)COC(c2ccccc2)c2cccc3ccccc23)CC1 (stereo not given)
[16]
  inhibition: 90%

## COc1nc2ccc(Br)cc2cc1[C@H](c1ccccc1)[C@](O)(CCCCN1CCN(C)CC1)CCc1ccccc1
Staphylococcus aureus [12]
  MIC: 1 µg/mL (≈ 1.62 µM)
Streptococcus pneumoniae [14]
  MIC: 0.25 µg/mL (≈ 0.405 µM)

## O=c1c(O[C@@H]2O[C@H](CO)[C@@H](O)[C@H](O)[C@H]2O)c(-c2ccc(O)c(O)c2)oc2cc(O)cc(O)c12 [ISOQUERCETIN]
[5]
  IC50: 71 µM
Escherichia coli [6]
  inhibition: 40%

## OC(COC(c1ccccc1)c1cccc2ccccc12)CN1CCN(C(c2ccccc2)c2ccccc2)CC1 (stereo not given)
[16]
  inhibition: 98%

## CC1(C)CC(=O)C(=CNc2ccccc2O)C(=O)C1
Mus musculus
  inhibition: 25%
[10]
  selectivity ratio: 20
[11]
  IC50: 4 µM
[22]
  inhibition: 15 to 30%
[7]
  MIC: 2 µg/mL (≈ 7.71 µM)
[21]
  Ratio IC50: 11.6

## O=C(CNC1CCCC1)N(c1ccccc1)c1ccccc1
[7]
  IC50: 10.4 µM
[8]
  selectivity ratio: 24
